The source made the active and inactive calls. The calls are words filed in the database; no cut-off is given here.
Tests used:
[1] = biological target: T1, Peroxisome proliferator-activated receptor alpha (Homo sapiens, UniProt Q07869); assay: Agonist activity at GAL4-tagged human PPARalpha ligand binding domain expressed in human HepG2 cells assessed as receptor transactivation by luciferase reporter gene assay; format: cell-based
T1 sequence (Q07869 whole entry): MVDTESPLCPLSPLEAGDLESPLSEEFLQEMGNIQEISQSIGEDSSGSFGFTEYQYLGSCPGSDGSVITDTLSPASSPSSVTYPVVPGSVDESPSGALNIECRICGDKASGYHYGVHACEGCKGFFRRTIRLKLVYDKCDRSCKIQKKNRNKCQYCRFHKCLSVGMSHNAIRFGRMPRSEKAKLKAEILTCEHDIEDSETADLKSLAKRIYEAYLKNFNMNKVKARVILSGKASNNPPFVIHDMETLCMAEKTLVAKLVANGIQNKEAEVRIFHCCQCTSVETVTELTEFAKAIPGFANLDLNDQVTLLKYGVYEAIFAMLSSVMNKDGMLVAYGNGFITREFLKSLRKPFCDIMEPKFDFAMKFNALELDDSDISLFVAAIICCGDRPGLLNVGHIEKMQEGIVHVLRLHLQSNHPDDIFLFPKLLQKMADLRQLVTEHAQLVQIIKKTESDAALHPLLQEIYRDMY

[2] = biological target: T2, Chloride channel isoform 1 (Rattus norvegicus) (UniProt Q7TT78); assay: Inhibition of CIC1 in Wistar rat extensor digitorum longus muscle assessed as decrease in resting chloride channel conductance at 100 uM by electrophysiology method; format: tissue-based; parameters: scale not given: the % may be the effect or the level left
T2 sequence (whole entry): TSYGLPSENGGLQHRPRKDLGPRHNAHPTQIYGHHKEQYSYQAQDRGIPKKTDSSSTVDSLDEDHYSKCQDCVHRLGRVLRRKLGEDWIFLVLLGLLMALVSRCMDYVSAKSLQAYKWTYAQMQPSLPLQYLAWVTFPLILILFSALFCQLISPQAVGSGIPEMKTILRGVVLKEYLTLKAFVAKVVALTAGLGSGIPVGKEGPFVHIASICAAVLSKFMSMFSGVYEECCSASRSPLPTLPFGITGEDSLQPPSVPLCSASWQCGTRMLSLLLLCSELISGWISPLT

[3] = biological target: T2, Chloride channel isoform 1 (Rattus norvegicus); assay: Inhibition of CIC1 in Wistar rat extensor digitorum longus muscle assessed as decrease in resting chloride channel conductance at 50 uM by electrophysiology method; format: tissue-based; parameters: scale not given: the % may be the effect or the level left
[4] = test system: Extensor digitorum longus; assay: Inhibition of resting potassium conductance in Wistar rat extensor digitorum longus muscle by electrophysiology method; format: functional, tissue-based
[5] = biological target: T3, Peroxisome proliferator-activated receptor gamma (Homo sapiens, UniProt P37231)
T3 sequence (P37231 whole entry): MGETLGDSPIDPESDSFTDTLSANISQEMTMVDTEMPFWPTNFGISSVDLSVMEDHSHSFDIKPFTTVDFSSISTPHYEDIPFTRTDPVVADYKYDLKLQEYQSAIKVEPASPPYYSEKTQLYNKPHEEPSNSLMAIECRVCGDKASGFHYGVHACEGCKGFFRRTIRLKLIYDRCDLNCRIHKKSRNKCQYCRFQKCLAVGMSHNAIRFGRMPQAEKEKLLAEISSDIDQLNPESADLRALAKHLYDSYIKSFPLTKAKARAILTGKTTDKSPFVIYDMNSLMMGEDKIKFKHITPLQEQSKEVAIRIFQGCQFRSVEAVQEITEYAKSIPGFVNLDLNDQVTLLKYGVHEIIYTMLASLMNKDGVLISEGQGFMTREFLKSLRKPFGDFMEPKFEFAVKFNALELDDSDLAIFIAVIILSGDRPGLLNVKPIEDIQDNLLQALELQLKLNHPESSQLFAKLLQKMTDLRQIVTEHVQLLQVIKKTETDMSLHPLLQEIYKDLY

[6] = biological target: T4, Peroxisome proliferator-activated receptor alpha (Homo sapiens) (UniProt Q07869); assay: Agonist activity at GAL4-tagged human PPARalpha ligand binding domain expressed in human HepG2 cells assessed as receptor transactivation by luciferase reporter gene assay relative to Wy-14643; format: cell-based
T4 sequence (whole entry): T1 sequence (Q07869 whole entry)

[7] = biological target: T2, Chloride channel isoform 1 (Rattus norvegicus); assay: Inhibition of CIC1 in Wistar rat extensor digitorum longus muscle assessed as decrease in resting chloride channel conductance at 5 uM by electrophysiology method; format: tissue-based; parameters: scale not given: the % may be the effect or the level left
[8] = biological target: T3, Peroxisome proliferator-activated receptor gamma; conditions: hepg2

EC50 ([1]; read-out: EC50)	EC50 [5]	Efficacy [6]	Compound	also measured
–	–	116%	O=C(O)[C@H](Cc1ccccc1)Oc1ccc(-c2ccccc2)cc1	Activity [2]: 12%; Activity [7]: 2%; Activity [4]: inactive
488 nM	1400 nM	134%	O=C(O)C(Cc1ccccc1)Oc1ccc(SCc2ccccc2)cc1 (racemic)	–
1400 nM	9400 nM	120%	O=C(O)C(Cc1ccccc1)Oc1ccc(CNc2ccccc2)cc1 (racemic)	–
3600 nM	13000 nM	78%	O=C(O)C(Cc1ccccc1)Oc1ccc(NCc2ccccc2)cc1 (racemic)	–

Continued, compound first:

Compound	EC50 ([1]; read-out: EC50)	EC50 [5]	Efficacy [6]	also measured
O=C(O)[C@H](Cc1ccccc1)Oc1ccc(Cc2ccccc2)cc1	11.5 nM	572 nM	–	Activity [2]: 9%; Activity [3]: 2%; Activity [4]: inactive
O=C(O)[C@H](Cc1ccccc1)Oc1ccc(CCc2ccccc2)cc1	–	400 nM	–	Activity [2]: 24%; Activity [4]: inactive
O=C(O)[C@@H](Cc1ccccc1)Oc1ccc(CCc2ccccc2)cc1	–	1600 nM	inactive	EC50 ([1]; hepg2): Not Active
O=C(O)[C@@H](Cc1ccccc1)Oc1ccc(Cc2ccccc2)cc1	2400 nM	5700 nM	82%	–
CC(C)(Oc1ccc(C(=O)c2ccc(Cl)cc2)cc1)C(=O)O	–	–	–	Activity [2]: 11%
CC(C)(Oc1ccc(Cl)cc1)C(=O)O	–	–	–	Activity [2]: 28%
O=C(O)C(Cc1ccccc1)Oc1ccc(OCc2ccccc2)cc1 (racemic)	107 nM	2400 nM	112%	–
O=C(O)C(Cc1ccccc1)Oc1ccc(COc2ccccc2)cc1 (racemic)	600 nM	3000 nM	107%	–
O=C(O)C(Cc1ccccc1)Oc1ccc(Cc2ccccc2)cc1 (racemic)	15.9 nM	580 nM	115%	–
O=C(O)C(Cc1ccccc1)Oc1ccc(CSc2ccccc2)cc1 (racemic)	310 nM	400 nM	92%	–
O=C(Cc1ccccc1)c1ccc(OC(Cc2ccccc2)C(=O)O)cc1 (racemic)	1800 nM	9100 nM	106%	–
O=C(O)C(Cc1ccccc1)Oc1ccc(CCc2ccccc2)cc1 (racemic)	330 nM	860 nM	86%	–
O=C(O)C(Cc1ccccc1)Oc1ccc(C#Cc2ccccc2)cc1 (racemic)	1360 nM	540 nM	36%	–
O=C(O)C(Cc1ccccc1)Oc1ccc(CCCc2ccccc2)cc1 (racemic)	720 nM	–	67%	–
O=C(O)C(Cc1ccccc1)Oc1ccc(Oc2ccccc2)cc1 (racemic)	60 nM	1210 nM	126%	–
Cc1cccc(Nc2cc(Cl)nc(SCC(=O)O)n2)c1C [PIRINIXIC ACID]	–	–	–	EC50 [8]: Not Active
CN(CCOc1ccc(CC2SC(=O)NC2=O)cc1)c1ccccn1 (stereo not drawn) [ROSIGLITAZONE]	–	–	inactive	EC50 ([1]; hepg2): Not Active

From ChEMBL document CHEMBL1154168, “New 2-aryloxy-3-phenyl-propanoic acids as peroxisome proliferator-activated receptors alpha/gamma dual agonists with improved potency and reduced adverse effects on skeletal muscle function” (J Med Chem, 2009)
